The text below walks through data of patent US7148028B2, “Methods and means relating to atherosclerosis” (priority 2001, dated 2006).

In experiment [1] the test system is anti-Chlamydia abzymes. The format is biochemical, human. Further details: key to In-vitro Inhibition: + = inhibition; − = no inhibition.
Experiment [2] relates to anti-Chlamydia abzymes. In kind it is in vivo, human. As to conditions: for abzyme activity of individuals, + aspirin: self-reported aspirin takers, one value per individual.
Experiment [3] in a line: Clinical condition, modified Rose-Blackburn Questionnaire. The format is in vivo, human. The text has this:
The progression of the clinical condition of the patients was monitored by the use of the modified Bruce Protocol for treadmill exercise/stress ECG testing and on the Rose-Blackburn Questionnaire (Cardiovascular Survey Methods. WHO, Geneva, 1968)

The test system of experiment [4] is Chlamydia pneumoniae or Chlamydia Psittaci. In kind it is biochemical.
A further experiment relates to lesion IgG. The experiment is described as follows: LDL peroxidation by lesion IgG (MDA). In kind it is biochemical, human.
[5] abbreviates: 10 μM of each agent, control 24.3.

Where “and” joins values, the source holds several entries; their conditions need not be identical. Identical values can stand only once. Entries after “also recorded” stand apart in the source; their conditions may differ. Counter-ions that a name gives are not always drawn. Like-named read-outs stand apart in the source and are kept apart here.

As to `CC(=O)Oc1ccccc1C(=O)O` [Aspirin, acetylsalicylic acid], the “Result (inhibition of anti-Chlamydia abzymes)” value with anti-Chlamydia abzymes [1] (10 μM of each agent) is listed as “Positive”. The “Lipid oxidising activity of anti-Chlamydia abzymes” value (“Lipid oxidising activity” below) with anti-Chlamydia abzymes [1] (setting [5]) came to 6.2 μM MDA/ml. For the same molecule, in the experiment on anti-Chlamydia abzymes [2] (250 mg aspirin daily, the other two CHD patients), the “abzyme activity after a week” value is given as “undetectably low level”. The “abzyme activity, aspirin alone” value in the experiment with anti-Chlamydia abzymes [2] (Therapy Group D, 250 mg daily) is on record as “reduction in the abzyme activity but to a lesser degree than observed with the combination”. Besides, the “individuals positive for abzymes / individuals, + aspirin” value in the experiment on anti-Chlamydia abzymes [2] (stable angina class I) is given as 1/6; with anti-Chlamydia abzymes [2] (stable angina class II) it was 4/15; with anti-Chlamydia abzymes [2] (stable angina class III), 6/10; in the experiment on anti-Chlamydia abzymes [2] (unstable angina IV) it was 6/7. Besides, the “percentage positive for abzymes, + aspirin” value in the experiment on anti-Chlamydia abzymes [2] (stable angina class I) amounted to 17%; in the experiment with anti-Chlamydia abzymes [2] (stable angina class II), 27%; in the experiment with anti-Chlamydia abzymes [2] (stable angina class III), 60%; with anti-Chlamydia abzymes [2] (unstable angina IV) it was 86%. Also, the “abzyme activity, group mean, + aspirin” value came to 10.0 in the experiment with anti-Chlamydia abzymes [2] (stable angina class I, n = 6, without aspirin 30.0) and 9.2 with anti-Chlamydia abzymes [2] (stable angina class II, n = 15, without aspirin 32.2). Moreover, the “abzyme activity of individuals, + aspirin” value with anti-Chlamydia abzymes [2] (stable angina class I) is 5 and 45 and 0 (3×) and 10; in the experiment on anti-Chlamydia abzymes [2] (stable angina class II), 5 (4×) and 10 (2×) and 0 (4×) and 25 and 3.3 and 30; in the experiment on anti-Chlamydia abzymes [2] (stable angina class III), 0 (3×) and 45 and 5 and 35 and 15 and 30 and 20; in the experiment with anti-Chlamydia abzymes [2] (unstable angina IV), 130 and 70 and 0 and 37 and 90 and 100 and 180.
Take `CC[C@H]1OC(=O)[C@H](C)[C@@H](O[C@H]2C[C@@](C)(OC)[C@@H](O)[C@H](C)O2)[C@H](C)[C@@H](O[C@@H]2O[C@H](C)C[C@H](N(C)C)[C@H]2O)[C@](C)(O)C[C@@H](C)CN(C)[C@H](C)[C@@H](O)[C@]1(C)O` [Azithromycin]: in experiment [3] (Table 17, anti-microbial agent only, single patients), the “Clinical condition After 15 days of treatment” value is reported as “angina class II;; also recorded: Stable condition;”. The “Score by modified Rose-Blackburn Questionnaire, 60 days after start of the treatment, group mean” value in experiment [3] (before: A 19.4 ± 1.79, B 20.4 ± 1.24, C 18.6 ± 0.81) is given as 14.4 ± 1.14. The “in vitro inhibition of abzyme activity” value with anti-Chlamydia abzymes [1] was “strong in vitro inhibitor of abzyme activity”. Further, in the experiment on anti-Chlamydia abzymes [1] (in DMSO, 5 μM, control 61, DMSO effect deducted), the “Lipid oxidising activity” value amounted to 0 μM MDA/ml. Moreover, the “Abzyme activity after 15 days / two weeks” value in the experiment with anti-Chlamydia abzymes [2] (Example 8, stable angina patients) was “reduced abzyme activity”. Moreover, in the experiment on anti-Chlamydia abzymes [2] (Therapy Group A, before 47.5), the “Anti-Chlamydia abzyme activity, 45 days, group mean” value came out at 7.4 μM MDA/ml and the “Anti-Chlamydia abzyme activity, 60 days, group mean” value amounted to 1.6 μM MDA/ml.
As to `CCN(CC)C(=S)S` [DDC], in the experiment on anti-Chlamydia abzymes [1], the “In-vitro Inhibition” value is recorded as “+”. The “Result (inhibition of anti-Chlamydia abzymes)” value in the experiment with anti-Chlamydia abzymes [1] (10 μM of each agent) is recorded as “Positive”. The “Lipid oxidising activity” value with anti-Chlamydia abzymes [1] (setting [5]) came to 0 μM MDA/ml.
For `C[S+](C)[O-]` [DMSO], in experiment [4], the “development of lipid oxidation reaction after treatment of Chlamydia with chaotropic agents” value (“development of lipid oxidation reaction” for short) is given as “completely abrogated”. For the same molecule, in the experiment on lesion IgG (+1% antioxidant, LDL 480 μg of protein, control 0.49 ± 0.023), the “Level of MDA production by 0.82 μg of lesion IgG” value (“Level of MDA production” below) was found to be 0 µM.
For the molecule `O=C(O)CN(CCN(CC(=O)O)CC(=O)O)CCN(CC(=O)O)CC(=O)O` [DTPA], the “Result (inhibition of anti-Chlamydia abzymes)” value with anti-Chlamydia abzymes [1] (10 μM of each agent) is reported as “Negative”.
On to `O=[N+]([O-])OCC(CO[N+](=O)[O-])O[N+](=O)[O-]` [Glyceryl Trinitrate], for which the Anti-Abzyme accivity was found to be 0 μM MDA/ml in the experiment on anti-Chlamydia abzymes [1] (4.4 μM, control 21.7); 0 μM MDA/ml with anti-Chlamydia abzymes [1] (22 μM, control 21.7); 0 μM MDA/ml in the experiment with anti-Chlamydia abzymes [1] (44 μM, control 21.7); 0 μM MDA/ml in the experiment on anti-Chlamydia abzymes [1] (220 μM, control 21.7).
As to `O=[N+]([O-])O[C@H]1CO[C@H]2[C@@H]1OC[C@H]2O[N+](=O)[O-]` [Isosorbide Dinitrate], the Anti-Abzyme accivity is recorded as 0 μM MDA/ml in the experiment with anti-Chlamydia abzymes [1] (42 μM, control 21.7) and 0 μM MDA/ml in the experiment with anti-Chlamydia abzymes [1] (211 μM, control 21.7).
In the case of `CCC[C@@H]1C[C@@H](C(=O)N[C@@H]([C@H]2O[C@H](SC)[C@H](O)[C@@H](O)[C@H]2O)[C@@H](C)O)N(C)C1` [Lincomycin Hydrochloride], the Anti-Abzyme accivity in the experiment with anti-Chlamydia abzymes [1] (6.5 μM, control 21.7) turned out to be 28.5 μM MDA/ml; in the experiment with anti-Chlamydia abzymes [1] (13 μM, control 21.7), 30.3 μM MDA/ml.
For `[N-]=[N+]=[N-].[Na+]` [NaN1], in the experiment on anti-Chlamydia abzymes [1] (10 μM of each agent), the “Result (inhibition of anti-Chlamydia abzymes)” value is “Positive”. Besides, the “Lipid oxidising activity” value with anti-Chlamydia abzymes [1] (setting [5]) turned out to be 0 μM MDA/ml.
The like results for `CC(C)(S)[C@@H](N)C(=O)O` [Penicillamine] were, in that order, “Positive” and 0 μM MDA/ml.
For `O=C(O)c1ccccn1` [Picolinic acid] the same measures were “Positive” and 0 μM MDA/ml.
`CC(C)NCC(O)COc1cccc2ccccc12` (stereo not shown) [Propranolol Hydrochloride]: the Anti-Abzyme accivity in the experiment with anti-Chlamydia abzymes [1] (Hydrochloride) is 21.3 μM MDA/ml and 18.3 μM MDA/ml.
For `CCCCCCCCCCCCOS(=O)(=O)[O-].[Na+]` [SDS], the “lipid oxidising reaction with treated Chlamydia samples” value (“lipid oxidising reaction” for short) in experiment [4] is “no lipid oxidising reaction”.
Turning to `N.N.O=S(=O)(O)O` [ammonium sulphate], the “lipid oxidising reaction” value in experiment [4] is recorded as “no lipid oxidising reaction”.
Consider `O=C(O)c1ccccc1` [benzoic acid], for which the “Level of MDA production” value in the experiment with lesion IgG (pH 5.6) amounted to 0 µM.
`C=O` [formalin]: in experiment [4], the “lipid oxidising reaction” value is “no lipid oxidising reaction”.
As to `O=C[O-].[Na+]` [sodium formate], the “Level of MDA production” value in the experiment on lesion IgG (+0.1 M antioxidant, LDL 480 μg of protein, 16 h 37° C. pH 5.6, control 0.49 ± 0.023) was 0 µM.
Heparin: the Anti-Abzyme accivity in the experiment with anti-Chlamydia abzymes [1] (0.1 mg/ml, control 21.7) came to 19.7 μM MDA/ml.
For the molecule Igepal CA-630, in experiment [4], the “development of lipid oxidation reaction” value is recorded as “completely abrogated” and the “oxidation of the lipids in the bacteria by the extracted abzymes after detergent treatment” value is listed as “abolished”.
Nadroparin Calcium: the Anti-Abzyme accivity in the experiment with anti-Chlamydia abzymes [1] (5 UI, control 21.7) is given as 20.5 μM MDA/ml; in the experiment with anti-Chlamydia abzymes [1] (65 UI, control 21.7) it was 12.8 μM MDA/ml.
Take Triton X-100: in experiment [4], the “development of lipid oxidation reaction” value is reported as “completely abrogated” and the “oxidation of the lipids in the bacteria by the extracted abzymes after detergent treatment” value is on record as “abolished”.
